Data as given in patent publication US5936105A, “14-EPI-19-nor-vitamin D compounds and methods” (Tetrionics, Inc., priority 1998, dated 1999).
“Also recorded” adds a separate entry of the source.

Tests used:
[1] = system: D deficient rat; test: In vivo calcemic activity: intestinal calcium transport (everted gut sac technique); details: for TRANSPORT (S/M): intraperitoneal, mean ± SEM
Description: (§1) In vivo Calcemic Activity
(§2) These studies were carried out with five to six rats per group. Male weanling rats were fed a vitamin D-deficient diet for one week and then shifted to the same diet but with calcium removed for three weeks. The hypocalcemic rats were dosed intraperitoneally with the indicated dose of compound per day for a total of 7 days. Twenty-four hours after the last dose all animals were killed by decapitation and serum calcium was measured by atomic absorption spectroscopy in the presence of 1.0% lanthanium chloride. Intestinal calcium transport was measureed by the everted gut sac technique of Martin and Deluca.

[2] = system: D deficient rat; test: In vivo calcemic activity: serum calcium / bone calcium mobilization (atomic absorption spectroscopy); details: for SERUM CALCIUM: intraperitoneal, mean ± SEM; for effect on bone, in words: rat, in vivo
Description: as §1, §2

[3] = system: leukemia cells; details: U.S. Pat. No. 4,391,802; cited from earlier work
[4] = system: HL-60 cells; test: Differentiation of HL-60 cells (NBT reduction assay); type: cell-based, human; details: for Activity vs. 1,25(OH)2 D3: HL-60 differentiation, ratio to 1,25(OH)2 D3; for EC50: Homo sapiens, read-out: EC50 (concentration to induce differentiation in 50% of the cells; text: IC50), NBT reduction, HL-60; for in vitro differentiative (D) and anti-proliferative (I) activity, in words: HL-60, differentiation and proliferation; for differentiative activity (D) used for T.P.: relative to 1,25-(OH)2 D3
Description: Differentiation of HL-60 Cells.
The ability of the 14-epi-19-nor-vitamin analogs and the corresponding 19-nor-vitamin D analogs to induce differentiation in the human HL-60 promyelocyte cell line was measured by a nitroblue tetrazolium (NBT) reduction assay.

[5] = system: HL-60 cells; test: Inhibition of HL-60 cell proliferation (thymidine incorporation assay); type: cell-based, human; details: for Activity vs. 1,25(OH)2 D3: HL-60 proliferation, ratio to 1,25(OH)2 D3; for EC50: Homo sapiens, read-out: EC50 (50% reduction in thymidine incorporation; text: IC50), thymidine incorporation, HL-60; for anti-proliferative activity (I) used for T.P.: relative to 1,25-(OH)2 D3
Description: Inhibition of HL-60 Cell Proliferation.
The ability of the 14-epi-19-nor-vitamin D analogs and the corresponding 19-nor-vitamin D analogs to inhibit proliferation of the HL-60 cell line was measured by thymidine incorporation assay.

[6] = biological target: T1, Procine Intestinal Nuclear Vitamin D Receptor (Sus scrofa, UniProt A3RGC1); details: VDR binding, ratio to 1,25(OH)2 D3
T1 sequence (A3RGC1 1-427): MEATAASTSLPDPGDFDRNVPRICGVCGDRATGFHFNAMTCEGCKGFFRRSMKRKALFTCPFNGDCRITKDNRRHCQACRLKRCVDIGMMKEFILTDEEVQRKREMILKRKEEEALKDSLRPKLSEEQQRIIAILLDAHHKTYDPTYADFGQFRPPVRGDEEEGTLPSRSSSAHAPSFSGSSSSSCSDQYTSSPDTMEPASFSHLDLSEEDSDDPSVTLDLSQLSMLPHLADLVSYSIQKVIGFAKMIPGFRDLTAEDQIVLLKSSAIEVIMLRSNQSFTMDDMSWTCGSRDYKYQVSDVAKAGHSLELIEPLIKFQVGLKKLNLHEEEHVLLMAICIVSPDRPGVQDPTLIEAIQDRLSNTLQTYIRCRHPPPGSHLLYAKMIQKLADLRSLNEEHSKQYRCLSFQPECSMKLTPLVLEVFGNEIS

[7] = biological target: T1, Procine Intestinal Nuclear Vitamin D Receptor; test: biochemical
Description: Binding to the Procine Intestinal Nuclear Vitamin D Receptor.

[8] = system: D deficient rat; test: In vivo calcemic activity, overall; details: for calcemic activity used for T.P.: relative to 1,25-(OH)2 D3; for calcemic activity, in words: relative to 1,25-(OH)2 D3 or 19-nor compounds
Description: as §1, §2

[9] = system: D deficient rat; test: In vivo activation of pro-drug (25-hydroxylation by the liver); details: inferred from in vivo activity
Description: as §2
The in vivo results also establish the PRO-DRUG concept for the 14-epi-19-nor-25-deoxy-analog. […] This minimal bone activity resulting in lower calcemic toxicity may have important clinical implications.

[10] = TABLE 1, 250 pmol/d/7 days, 5 rats
[11] = TABLE 1, 625 pmol/d/7 days, 5 rats
[12] = TABLE 2, 250 pmol/d/7 days, 5 rats
[13] = TABLE 3, 260 pmol/d/7 days, 6 rats
[14] = TABLE 2, 625 pmol/d/7 days, 5 rats
[15] = TABLE 2, 1300 pmol/d/7 days, 5 rats
[16] = TABLE 1, 1300 pmol/d/7 days, 5 rats
[17] = TABLE 3, 625 pmol/d/7 days, 6 rats
[18] = TABLE 3, 1300 pmol/d/7 days, 6 rats

Row | Compound | TRANSPORT (S/M) [1, 10] | TRANSPORT (S/M) [1, 11] | SERUM CALCIUM [2, 10] | SERUM CALCIUM [2, 11] | TRANSPORT (S/M) [1, 12] | TRANSPORT (S/M) [1, 13] | SERUM CALCIUM [2, 12] | SERUM CALCIUM [2, 13] | Activity vs. 1,25(OH)2 D3 [4] | EC50 [4] | Activity vs. 1,25(OH)2 D3 [5] | EC50 [5] | TRANSPORT (S/M) [1, 14] | TRANSPORT (S/M) [1, 15] | SERUM CALCIUM [2, 14] | SERUM CALCIUM [2, 15] | Activity vs. 1,25(OH)2 D3 [6] | EC50 [7] | other results
1 | C=C1/C(=C\C=C2/CCC[C@]3(C)[C@@H]([C@H](C)CCCC(C)C)CC[C@@H]23)C[C@@H](O)C[C@@H]1O [1(OH)D3, 1α-hydroxyvitamin D3] | 8.1 ± 0.1 S/M | 10.6 ± 1.4 S/M | 4.8 ± 0.3 mg/100 ml | 5.9 ± 0.1 mg/100 ml |  |  |  |  |  |  |  |  |  |  |  |  |  |  | antileukemic activity (induction of differentiation), in words [3]: potent antileukemic activity
2 | C=C1/C(=C\C=C2/CCC[C@]3(C)[C@@H]([C@H](C)CCCC(C)(C)O)CC[C@@H]23)C[C@@H](O)C[C@@H]1O [1,25(OH)2 D3, 1α,25-dihydroxyvitamin D3] |  |  |  |  | 7.8 ± 0.4 S/M | 7.18 ± 0.47 S/M | 5.3 ± 0.3 mg/100 ml | 5.36 ± 0.27 mg/100 ml |  |  |  |  |  |  |  |  |  |  | antileukemic activity (induction of differentiation), in words [3]: potent antileukemic activity
3 | CC(C)CCC[C@@H](C)[C@H]1CC[C@H]2/C(=C/C=C3C[C@@H](O)C[C@H](O)C3)CCC[C@]12C [19-nor-1(OH)D3] | 6.3 ± 0.7 S/M | 8.6 ± 0.7 S/M | 3.4 ± 0.2 mg/100 ml | 3.7 ± 0.2 mg/100 ml |  |  |  |  |  |  |  |  |  |  |  |  |  |  | 
4 | C[C@H](CCCC(C)(C)O)[C@H]1CC[C@H]2/C(=C/C=C3C[C@@H](O)C[C@H](O)C3)CCC[C@]12C [19-nor-1,25(OH)2 D3, 19-nor-1,25-dihydroxyvitamin D3, reference compound] |  |  |  |  | 4.8 ± 0.4 S/M |  | 3.6 ± 0.1 mg/100 ml |  | 0.40 | 13 nM | 0.5 | 60 nM | 4.9 ± 0.5 S/M | 4.8 ± 0.5 S/M | 3.6 ± 0.2 mg/100 ml | 3.7 ± 0.2 mg/100 ml | 0.2 | 4.2 nM | 
5 | CC(C)CCC[C@H](C)[C@H]1CC[C@H]2/C(=C/C=C3C[C@@H](O)C[C@H](O)C3)CCC[C@]12C [20-epi-19-nor-1(OH)D3] | 7.6 ± 0.5 S/M | 9.2 ± 1.1 S/M | 4.1 ± 0.1 mg/100 ml | 5.4 ± 0.3 mg/100 ml |  |  |  |  |  |  |  |  |  |  |  |  | 0.0013 | 600 nM | TRANSPORT (S/M) [1, 16]: 11.7 ± 1.4 S/M; SERUM CALCIUM [2, 16]: 6.7 ± 0.2 mg/100 ml
6 | C[C@@H](CCCC(C)(C)O)[C@H]1CC[C@H]2/C(=C/C=C3C[C@@H](O)C[C@H](O)C3)CCC[C@]12C [20-epi-19-nor-1,25(OH)2 D3, reference compound] |  |  |  |  | 7.3 ± 0.1 S/M |  | 5.7 ± 0.5 mg/100 ml |  | 25 | 0.2 nM | 7.5 | 4 nM | 8.2 ± 0.7 S/M | 8.7 ± 0.7 S/M | 6.3 ± 0.4 mg/100 ml | 6.6 ± 0.5 mg/100 ml | 1.0 | 0.8 nM | 
7 | C[C@H](CCCC(C)(C)O)[C@H]1CC[C@@H]2/C(=C/C=C3C[C@@H](O)C[C@H](O)C3)CCC[C@@]21C [[27], 14-epi-19-nor-1α,25-dihydroxyvitamin D3] |  |  |  |  | 4.1 ± 0.4 S/M |  | 3.6 ± 0.2 mg/100 ml |  | 0.33 | 15 nM | 0.4 | 80 nM | 3.2 ± 0.4 S/M | 3.5 ± 0.3 S/M | 3.2 ± 0.1 mg/100 ml | 3.4 ± 0.1 mg/100 ml | 0.18 | 4.5 nM | in vitro differentiative (D) and anti-proliferative (I) activity, in words [4]: approximately half as active as 1,25-(OH)2 D3; differentiative activity (D) used for T.P. [4]: 0.33; cellular activity, in words ([4]; relative to native hormone): cellular activity similar to the native hormone; anti-proliferative activity (I) used for T.P. [5]: 0.4; calcemic activity relative to the natural hormone ([8]; 5× the dose of 1,25-(OH)2 D3): less than 20%; calcemic activity used for T.P. [8]: < 0.2; calcemic activity, in words [8]: no calcemic activity at 5× the dose of 1,25-(OH)2 D3; also recorded: greatly reduced calcemic activity
8 | CC(C)CCC[C@H](C)[C@H]1CC[C@@H]2/C(=C/C=C3C[C@@H](O)C[C@H](O)C3)CCC[C@@]21C [[28], 14-epi-20-epi-19-nor-1α-hydroxyvitamin D3] |  |  |  |  |  | 3.80 ± 0.23 S/M |  | 3.96 ± 0.05 mg/100 ml |  |  |  |  |  |  |  |  | < 0.0008 | > 1000 nM | TRANSPORT (S/M) [1, 17]: 5.14 ± 0.66 S/M; TRANSPORT (S/M) [1, 18]: 5.90 ± 0.49 S/M; activity on gut, in words ([1]; rat, in vivo): reduced activity on gut compared to the 25-hydroxy drug compound; SERUM CALCIUM [2, 17]: 4.11 ± 0.10 mg/100 ml; SERUM CALCIUM [2, 18]: 3.79 ± 0.05 mg/100 ml; effect on bone, in words [2]: no activity on bone; in vivo activation / 25-hydroxylation / clearance, in words [9]: has been 25-hydroxylated by the liver; also recorded: activated in vivo to the active drug product
9 | C[C@@H](CCCC(C)(C)O)[C@H]1CC[C@@H]2/C(=C/C=C3C[C@@H](O)C[C@H](O)C3)CCC[C@@]21C [[29], 14-epi-20-epi-19-nor-1α,25-dihydroxyvitamin D3] |  |  |  |  |  | 4.36 ± 0.30 S/M |  | 4.02 ± 0.16 mg/100 ml | 10.0 | 0.5 nM | 45 | 0.66 nM |  |  |  |  | 0.33 | 2.5 nM | in vitro differentiative (D) and anti-proliferative (I) activity, in words [4]: most potent analog; times more potent than 1,25-(OH)2 D3 (D) ([4]; differentiative (D)): 10 times; differentiative activity (D) used for T.P. [4]: 8.0; times more potent than 1,25-(OH)2 D3 (I) ([5]; anti-proliferative (I)): 45 times; anti-proliferative activity (I) used for T.P. [5]: 56; TRANSPORT (S/M) [1, 17]: 6.94 ± 0.27 S/M; TRANSPORT (S/M) [1, 18]: 7.14 ± 0.44 S/M; activity on gut, in words ([1]; rat, in vivo): only minimal gut activity; gut activity relative to the natural hormone ([1]; rat, in vivo): 20%; SERUM CALCIUM [2, 17]: 3.66 ± 0.06 mg/100 ml; SERUM CALCIUM [2, 18]: 4.10 ± 0.20 mg/100 ml; effect on bone, in words [2]: no effect on bone at any of the doses tested; calcemic activity used for T.P. [8]: < 0.2; calcemic activity, in words [8]: greatly reduced
